Results on one molecule are retold here after patent publication US20080319038A1, “PREVENTATIVE OR THERAPEUTIC AGENT FOR ACUTE RENAL FAILURE” (priority 2005, published 2008).

The subject of assay [1] is ischemia reperfusion mice. In words: Effect of Fidarestat administration on renal damage in ischemia reperfusion mice. Format: in vivo, C57BL/6 mice. The settings on record: for BUN / CK / Creatinine: blood, 3 h ischemia, 24 h reperfusion, Average ± SEM, n = 4. As to the method:
Sixteen- to twenty-week-old male C57BL/6 mice (Wild) were used in the experiment. The mice were divided into 4 groups, which were designated as sham-operation group (normal control group), ischemia operation group (ischemia reperfusion control group), ischemia operation+Fidarestat 40 mg/kg administration group (ischemia reperfusion/Fidarestat 40 mg/kg administration group), and ischemia operation+Fidarestat 150 mg/kg administration group (ischemia reperfusion/Fidarestat 150 mg/kg administration group), respectively. 40 or 150 mg/kg/day of Fidarestat was mixed in their diet and administered to the ischemia operation+Fidarestat administration groups 7 days before ischemia operation. Plantar blood flow in these mice was measured with a laser blood flow meter under isoflurane anesthesia, and then the abdomen was incised. The abdominal aorta was exposed under a stereoscopic microscope and clipping was carried out at the portion distal to the renal artery bifurcation. Further, the right common iliac artery was also clipped and the right femoral artery was finally clipped. Thereafter, the abdomen was closed. The time of ischemia onset was set to the time when the femoral artery was clipped. From the time of ischemia onset, plantar blood flow was measured with a laser blood flow meter and the ischemia was confirmed. The clipping was released in order of the right femoral artery, right common iliac artery, and abdominal aorta in 3 hours from the ischemia onset and reperfusion was performed. At the time, the reperfusion status was confirmed with the laser blood flow meter. The reperfusion time was set to the time when the clipping of the aorta was released. The reperfusion was performed for 24 hours and the general condition was observed. Thereafter, heart blood was collected from the right atrium under isoflurane anesthesia. The collected heart blood was mixed with heparin and centrifuged at 3000 g. Then, the supernatant was collected therefrom, which was frozen for preservation at −80 degrees C. to use in a serologic test for CK, BUN, creatinine, and the like.

The test system of assay [2] is mice with LPS-induced inflammation. In words: Effect of Fidarestat administration on renal damage in mice with lipopolysaccharide (LPS)-induced inflammation. Format: in vivo, CD-1 mice. The protocol:
Eight-week-old male CD-1 mice were used in the experiment. The mice were divided into 3 groups of normal control group (drug and LPS non-administration group), LPS control group (drug non-administration/LPS administration group), and LPS/Fidarestat administration group (Fidarestat and LPS administration group). First, 10 mg/kg of Fidarestat (which was prepared with a solubilizing agent solution) was administered into the caudal vein of the Fidarestat administration group and the solubilizing agent solution was administered into the caudal vein of the drug non-administration group. After 5 minutes, Lipopolysaccharides (LPS: Escherichia coli; 0111: B4, Sigma) was prepared with a physiological salt solution, which was administered to the LPS administration group intraperitoneally at a concentration of 2 mg/kg and a physiological salt solution was administered to the LPS non-administration group intraperitoneally. After 24 hours, each of the groups of mice was anesthetized by ether inhalation and blood was collected from the abdominal vein using a heparinized syringe. Then, centrifugation was carried out under the following conditions: at 4 degree C., at 1,000×g, for 10 min. Plasma was then obtained. Blood urea nitrogen (BUN) and creatinine were measured using an autoanalyzer (Hitachi). In this regard, as a solubilizing agent, NMDG (N-methyl-D-glucamine) was used.

Setting [3] is: Fidarestat 40 mg/kg/day in diet from 7 days before ischemia.
[4] abbreviates: Fidarestat 150 mg/kg/day in diet from 7 days before ischemia.
Setting [5] is: plasma, Fidarestat 10 mg/kg caudal vein 5 min before LPS 2 mg/kg i.p., 24 hours after LPS, Average ± SEM, n = 7.

In assay [1] (setting [3]), `NC(=O)[C@@H]1C[C@]2(NC(=O)NC2=O)c2cc(F)ccc2O1` [Fidarestat, (2S,4S)-6-fluoro-2′,5′-dioxospiro[chroman-4,4′-imidazolidine]-2-carboxamide] yielded a BUN of 40 ± 11 mg/dL, a CK of 6978 ± 4904 IU/L and a Creatinine of 0.12 ± 0.01 mg/dL. In assay [1] (setting [4]), this molecule yielded a BUN of 31 ± 1 mg/dL, a CK of 2348 ± 530 IU/L and a Creatinine of 0.10 ± 0.01 mg/dL. In addition, in assay [1] (ischemia reperfusion/Fidarestat 40 mg/kg and 150 mg/kg administration groups), the “onset of acute renal failure” value is given as “completely suppressed”. Besides, the “effect on renal function impairment” value in assay [2] (model with LPS-induced inflammation, Fidarestat 10 mg/kg i.v.) was “effective”. For the same molecule, in assay [2] (setting [5]), the BUN worked out at 24.3 ± 2.2 mg/dL and the Creatinine worked out at 0.067 ± 0.003 mg/dL.
